Test in all cases: NCI-60 cell line screen, 48 h
In assay [1] the test system is SF-268 CNS.
Assay [2] has as its system LOX IMVI melanoma.
In assay [3] the test system is SNB-19 CNS.
For assay [4], the system named is A549 NSCLC.
For assay [5], the system named is OVCAR-8 ovarian.
Assay [6] concerns HCT-15 colon.
In assay [7] the test system is CAKI-1 renal.
Assay [8] deals with SK-OV-3 ovarian.
Assay [9] has as its system OVCAR-3 ovarian.
The subject of assay [10] is HCT-116 colon.
The subject of assay [11] is U251 CNS.
Assay [12] concerns EKVX NSCLC.
Assay [13] concerns COLO 205 colon.
In assay [14] the test system is ACHN renal.
Assay [15] has as its system HOP-92 NSCLC.
In assay [16] the test system is RXF 393 renal.

We go through 18 molecules from PubChem BioAssay (NCI).

Structures are written as SMILES.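 Where inhibition never reached the appropriate level, the endpoint shown equals the highest concentration tested. Otherwise, values were interpolated linearly from a five-concentration, 48-hour dose response in 96-well plates. The concentration for full growth arrest is given as TGI.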

Take `CCOP(=O)(OCC)/C(C#N)=C/c1cccn1CC(C)C`: the TGI in [1], in [2], in assay [3], in [4], in assay [5] and in [6] was more than 100 µM in each case. Moreover, the TGI in [7], in assay [8], in assay [9], in assay [10], in [11] and in assay [12] was more than 100 µM in each case. Besides, the TGI in [13], in [14], in assay [15] and in assay [16] was more than 100 µM each time.

On to `CNC(=O)CCCN(C)C(=O)CCCCC(=O)N(C)C`, for which the TGI in [1], in assay [2], in assay [3], in [4], in assay [5] and in assay [6] was more than 100 µM throughout. Besides, the TGI in assay [7], in assay [8], in [9], in [10], in assay [11] and in assay [12] was more than 100 µM in each case. Besides, the TGI in assay [13], in [14], in assay [15] and in assay [16] was more than 100 µM each time.

In the case of `O=C1C=C(NCCc2cc(Br)c(O)c(Br)c2)C(=O)c2ncccc21`, the TGI in assay [1] is 21.9 µM; in assay [2], 4.97 µM; in assay [3], 8.77 µM; in assay [4], 4.79 µM; in assay [5], 27.3 µM; in assay [6], 18.2 µM. Moreover, the TGI was 17.5 µM in assay [7]; 33.4 µM in assay [8]; 6.88 µM in [9]; 11.8 µM in assay [10]; 20 µM in assay [11]; 22 µM in assay [12]. Moreover, the TGI in assay [13] came to 3.25 µM; in assay [14], 22 µM; in assay [15] it was 25.6 µM; in assay [16] it was 13.4 µM.

As to `O=c1[nH]nc(Cc2ccc(Cl)cc2)n1/N=C\CC/C=N\n1c(Cc2ccc(Cl)cc2)n[nH]c1=O`, the TGI in [1] was 37.9 µM; in [2], more than 100 µM; in [3], more than 92.8 µM; in [4], more than 100 µM; in [5], 37 µM; in [6], more than 100 µM. The TGI is more than 100 µM in assay [7]; more than 100 µM in assay [8]; more than 100 µM in [9]; more than 100 µM in assay [10]; 46 µM in assay [11]; 78.5 µM in assay [12]. Also, the TGI in assay [13] is more than 100 µM; in assay [14] it was more than 100 µM; in assay [15], more than 100 µM; in assay [16] it was 76.1 µM.

Turning to `CC(C)n1c2c([n+](C)c1/C=C/c1ccccc1)C(=O)c1ccccc1C2=O`, the TGI in assay [1] worked out at 1.01 µM; in assay [2], 0.971 µM; in assay [3], 0.784 µM; in assay [4] it was 4.68 µM; in assay [5], 1.96 µM; in [6], 23.9 µM. Further, the TGI in assay [7] is 12.4 µM; in [8], 1.07 µM; in assay [9], 0.0289 µM; in assay [10], 0.433 µM; in assay [11], 0.738 µM; in assay [12], 1.25 µM. Also, the TGI is 0.0993 µM in assay [13], 10.9 µM in [14], 1.48 µM in assay [15] and 2.19 µM in assay [16].

For `NCCCN1CCN(CC(=O)O)CCN(CCCN)CCN(CC(=O)O)CC1`, the TGI in assay [1], in assay [2], in assay [3], in [4], in assay [5] and in assay [6] was more than 100 µM each time. Also, the TGI in assay [7], in [8], in [9], in [10], in [11] and in assay [12] was more than 100 µM each time. The TGI in [13], in assay [14], in [15] and in [16] was more than 100 µM each time.

Take `CCOC(=O)CCC(NC(=O)c1ccc(OCc2nc3ccccc3n3cccc23)cc1)C(=O)OCC` (stereo unspecified): the TGI in assay [1], in assay [2], in assay [3], in assay [4], in [5] and in assay [6] was more than 100 µM each time. Moreover, the TGI in assay [7], in assay [8], in assay [9], in assay [10], in assay [11] and in assay [12] was more than 100 µM in each case. Further, the TGI in [13], in assay [14], in assay [15] and in [16] was more than 100 µM each time.

Take `O=c1ccn2n1CCCCC2`: the TGI in [1], in assay [2], in [3], in assay [4], in assay [5] and in assay [6] was more than 100 µM each time. Also, the TGI in [7], in assay [8], in [9], in assay [10], in assay [11] and in [12] was more than 100 µM in each case. Also, the TGI in [13], in assay [14], in assay [15] and in assay [16] was more than 100 µM each time.

Regarding `O=C(c1cccnc1)N1N=C(c2ccc(Cl)cc2)CC1(O)c1cc(F)c(Cl)cc1Cl` (stereo unspecified), the TGI in assay [1] was 75 µM; in assay [2] it was 31.2 µM; in assay [3], more than 100 µM; in [4], more than 100 µM; in assay [5], more than 100 µM; in assay [6] it was more than 100 µM. Moreover, the TGI in assay [7] is more than 100 µM; in assay [8], more than 100 µM; in [9], 26.9 µM; in assay [10], 52.8 µM; in assay [11] it was 34.3 µM; in [12] it was 76.5 µM. For the same molecule, the TGI in assay [13] amounted to 28.7 µM; in assay [14], 53.8 µM; in assay [15], 59.8 µM; in [16], 26.7 µM.

For `CC1(C)CN=C(Nc2cccc(C(F)(F)F)c2)S1`, the TGI in [1], in assay [2], in assay [3], in assay [4], in [5] and in assay [6] was more than 100 µM throughout. The TGI in assay [7], in [8], in [9], in [10], in assay [11] and in [12] was more than 100 µM each time. Further, the TGI in assay [13], in assay [14], in assay [15] and in assay [16] was more than 100 µM in each case.

Regarding `O=C(NC1=NC2C=CC([N+](=O)[O-])=CC2S1)C(=O)Nn1c(=S)[nH]c2ccccc2c1=O` (stereo unspecified), the TGI was more than 100 µM in assay [1]; more than 100 µM in [2]; 72.7 µM in assay [3]; more than 100 µM in [4]; more than 100 µM in assay [5]; more than 100 µM in assay [6]. In addition, the TGI in [7], in assay [8], in assay [9], in assay [10], in [11] and in assay [12] was more than 100 µM throughout. Moreover, the TGI is 85.3 µM in [14], more than 100 µM in assay [15] and more than 100 µM in [16].

With `O=S(CCCl)c1c2ccccc2nc2ccccc12` (stereo unspecified), the TGI in assay [1], in [2], in assay [3], in [4], in assay [5] and in assay [6] was more than 100 µM each time. Besides, the TGI in [7] is 80.5 µM; in [8], more than 100 µM; in assay [9] it was more than 100 µM; in [10], more than 100 µM; in assay [11], more than 100 µM; in assay [12] it was more than 100 µM. In addition, the TGI in assay [13], in assay [14], in assay [15] and in assay [16] was more than 100 µM throughout.

`O=C(CCc1cccc(O)c1)NCCc1ccc(O)cc1`: the TGI in [1], in assay [2], in assay [3], in [4], in assay [5] and in assay [6] was more than 100 µM throughout. In addition, the TGI in [7], in [8], in assay [9], in [10], in assay [11] and in assay [12] was more than 100 µM throughout. Also, the TGI in assay [13], in assay [14], in [15] and in [16] was more than 100 µM in each case.

Turning to `COc1cc2c(c3c1c(=O)c1ccccc1n3C)C=CC1(CCCCC1)O2`, the TGI in assay [1] is more than 10 µM; in [2] it was more than 10 µM; in assay [3] it was more than 10 µM; in assay [4], 4.43 µM; in assay [5], more than 10 µM; in [6] it was more than 10 µM. The TGI in assay [7] was more than 2.29 µM; in [8] it was more than 10 µM; in assay [9], more than 10 µM; in assay [10], more than 10 µM; in assay [11], more than 10 µM; in assay [12], more than 10 µM. Moreover, the TGI in [13] was more than 10 µM; in assay [14] it was more than 10 µM; in assay [15], 9.77 µM; in assay [16] it was 2.98 µM.

`O=c1oc2ccc3ccccc3c2cc1-c1nc2ccccc2o1`: the TGI is 48.4 µM in assay [1]; 32.8 µM in assay [2]; more than 46.6 µM in assay [3]; more than 55.2 µM in assay [4]; 51.2 µM in [5]; more than 100 µM in assay [6]. Further, the TGI is 40.8 µM in assay [7]; more than 54.4 µM in assay [8]; 32.4 µM in [9]; more than 53.6 µM in [10]; 53.1 µM in assay [11]; more than 56.2 µM in assay [12]. Moreover, the TGI was more than 100 µM in assay [13], 29.9 µM in assay [14], 39.3 µM in assay [15] and 34.4 µM in assay [16].

With `CC(CO)C1=CC(C#CCOCc2ccccc2)N(C(=O)Oc2ccccc2)c2ccccc21` (stereo unspecified), the TGI in assay [1] is more than 100 µM; in [2], more than 100 µM; in assay [3], more than 100 µM; in assay [4] it was more than 100 µM; in assay [5], more than 100 µM; in [6], 29.7 µM. In addition, the TGI in assay [7] is 76.1 µM; in assay [8] it was more than 100 µM; in assay [9] it was 88.2 µM; in [10], more than 100 µM; in [11], more than 100 µM; in [12], 73 µM. In addition, the TGI was 28.4 µM in assay [13], 36.3 µM in assay [14], 61.7 µM in [15] and 23 µM in assay [16].

For the molecule `CCN(CC)CCCNc1nc2ccccc2c2[nH]c3ccc(OC)cc3c12`, the TGI in assay [1] was 4.43 µM; in assay [2] it was 2.9 µM; in [3], 4.25 µM; in assay [4], 3.37 µM; in [5], 2.41 µM; in assay [6], 3.05 µM. Further, the TGI is 8.25 µM in [7]; more than 10 µM in assay [8]; more than 10 µM in assay [9]; 1.95 µM in [10]; 3.23 µM in assay [11]; 3.31 µM in [12]. Moreover, the TGI in [13] was 2.59 µM; in [14] it was more than 10 µM; in assay [15] it was 9.53 µM; in assay [16], 2.96 µM.

For the molecule `CC(C)NCC(O)c1ccc(OCc2ccccc2)c(OCc2ccccc2)c1-c1ccccc1` (stereo unspecified), the TGI was determined as 11.8 µM in assay [1]; 13.8 µM in assay [2]; 4.07 µM in assay [3]; 3.21 µM in assay [4]; 3.17 µM in assay [5]; 3.22 µM in assay [6]. Besides, the TGI stood at 3.18 µM in assay [7]; 3.16 µM in [8]; 3.22 µM in [9]; 3.17 µM in [10]; 32.3 µM in assay [12]; 3.2 µM in assay [13]. The TGI is 3.06 µM in assay [14], 6.94 µM in assay [15] and more than 100 µM in [16].
